We go through 1 compound from patent publication US6376673B1, “Piperidine derivatives as neurotransmitter re-uptake inhibitors” (Neurosearch A/S, priority 1997, dated 2002).

The assay has as its target T1, dopamine transporter (Rattus norvegicus, UniProt P23977).
T1 construct: Corpus striatum from male Wistar rats (150-200 g) is homogenized; from tissue; host or cells: rat corpus striatum membrane pellet
The assay is described as follows: In vitro inhibition of 3H-WIN 35428 binding. Particulars: corpus striatum membranes of male Wistar rats; 1 nM 3H-WIN 35428, 60 min at 2° C.; read-out: In Vitro IC50 (inhibition of specific binding of 3H-WIN 35428). The source says:
The compounds of the present invention have been tested for their ability to bind to the dopamine transporter in the following tests for in vitro inhibition of ^3H-WIN 35428.
In vitro Inhibition of ^3H-WIN 35428 Binding
Dopamine transporters/uptake sites on nerve terminals presumably function to terminate neuronal signaling by removing dopamine from the synaptic cleft. The activity or presence of the dopamine transporter integral protein can be measured in vitro with synaptosomal uptake of ^3H-dopamine or membrane binding assays with ^3H-ligands known to bind to the transporter.
Numerous ligands of several structural types have been reported to bind at the dopamine uptake site, but it remains questionable whether their binding sites are identical to that of cocaine. A structural analog og cocaine, ^3H-WIN 35428, binds selectively and with high affinity to the dopamine transporter complex.
Tissue preparation: Preparations are performed at 0-4° C. unless otherwise indicated. […]
Assay: Aliquots of 0.5 ml tissue are added to 25 ml of test solution and 25 ml of ^3H-WIN 35428 (1 nM, final concentration), mixed and incubated for 60 min at 2° C. Non-specific binding is determined using cocaine (30 mM, final concentration). […] The amount of radioactivity on the filters is determined by conventional liquid scintillation counting. […]

T1 sequence (P23977 whole entry): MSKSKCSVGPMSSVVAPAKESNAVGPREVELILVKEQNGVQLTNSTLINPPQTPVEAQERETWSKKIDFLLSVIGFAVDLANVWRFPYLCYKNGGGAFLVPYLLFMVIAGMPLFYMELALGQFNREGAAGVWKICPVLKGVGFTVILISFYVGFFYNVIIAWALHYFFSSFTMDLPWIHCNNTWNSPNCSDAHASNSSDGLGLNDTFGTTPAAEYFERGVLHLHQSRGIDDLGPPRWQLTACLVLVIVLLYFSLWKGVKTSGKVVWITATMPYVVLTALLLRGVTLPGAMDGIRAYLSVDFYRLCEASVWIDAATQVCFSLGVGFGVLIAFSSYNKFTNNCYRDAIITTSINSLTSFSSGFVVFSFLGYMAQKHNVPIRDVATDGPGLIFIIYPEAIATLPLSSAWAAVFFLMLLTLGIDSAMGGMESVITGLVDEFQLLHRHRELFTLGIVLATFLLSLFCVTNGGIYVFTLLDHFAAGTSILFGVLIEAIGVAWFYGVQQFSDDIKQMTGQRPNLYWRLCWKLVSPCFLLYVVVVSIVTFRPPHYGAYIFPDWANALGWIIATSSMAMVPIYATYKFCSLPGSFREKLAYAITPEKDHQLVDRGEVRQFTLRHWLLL

Broadly, the IC50 is the point on the concentration scale where inhibition reaches its midpoint. With `CON=CC1CN(C)CCC1c1ccc(Cl)c(Cl)c1` (stereo not shown) [1-Metyl-3-methoxyiminomethyl-4-(3,4-dichlorophenyl)piperidine], the IC50 was found to be 16 nM.
